The results in this text go back to PMC6254336, “Structural and functional characterization of IdiA/FutA (Tery_3377), an iron-binding protein from the ocean diazotroph Trichodesmium erythraeum” (The Journal of Biological Chemistry, 2018).

The target of the test is T1, Tery_3377 (IdiA/FutA) (Trichodesmium erythraeum, UniProt Q10Z45).
T1 construct: mature protein, predicted signal peptide (residues 1-31) removed, C-terminal His6 tag, pET21a(+), E. coli BL21(DE3); two monomers per asymmetric unit
Put plainly: X-ray crystal structure, […] Å. The following applies: two citrates bound in the substrate-binding cleft together with one Fe3+ that they coordinate, about 7 Å from the empty iron site; protein citrate-treated before crystallisation; carboxylic acids mix.

T1 sequence (Q10Z45 entry or part of it): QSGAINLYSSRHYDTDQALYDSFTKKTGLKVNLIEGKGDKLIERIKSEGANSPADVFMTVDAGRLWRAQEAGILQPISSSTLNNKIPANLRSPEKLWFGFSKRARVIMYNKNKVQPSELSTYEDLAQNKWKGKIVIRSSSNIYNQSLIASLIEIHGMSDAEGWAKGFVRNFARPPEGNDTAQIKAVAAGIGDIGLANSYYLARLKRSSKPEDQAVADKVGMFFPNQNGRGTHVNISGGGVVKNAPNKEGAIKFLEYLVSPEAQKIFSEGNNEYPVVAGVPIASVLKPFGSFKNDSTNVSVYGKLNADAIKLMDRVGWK

For the molecule `O=C(O)CC(O)(CC(=O)O)C(=O)O` [citrate], the “X-ray crystal structure, 1.2 Å” value is “traps the citrate molecule with bound iron in the substrate-binding cleft”.
